Earlier results in US7196180B2, “Functionalized derivatives of hyaluronic acid, formation of hydrogels in situ using same, and methods for making and using same” (Orthogene LLC, priority 1998, dated 2007).

- pKa: > 9
Structure (SMILES): NCCCCN [putrescine]
